Source: article PMC10609854 (Pharmaceuticals, 2023)
Values joined by “and” are separate entries in the source; they are usually repeats but may differ in a detail not shown here. Equal entries are not always repeated.

Experiments:
[1] = system: carrageenan-induced thermal hyperalgesia; assay: carrageenan-induced thermal hyperalgesia (plantar test); type: in vivo; conditions: rats
Description: (§1) The acute, local inflammation and paw edema was induced by subplantar injection of 0.1 mL of 1% carrageenan (made in PBS) into the rat right hind paw. The paw volume was measured using the dislocation of the water column of the plethysmometer (Plethysmometr 7140, Ugo Basile) before and at 1, 2, and 3 h after subplantar injection of carrageenan.
To evaluate the heightened sensitivity to thermal stimuli, we employed a plantar test apparatus (Commat Ltd., Ankara, Turkey). Rats were individually placed in plexiglass chambers and allowed to acclimatize for 20 to 30 min before testing. A radiant heat source was positioned beneath the chamber floor, directly under the hind paw. The time it took for the paw to withdraw in response to the heat was automatically recorded by a photocell and an electronic timer. The intensity of the radiant heat was adjusted to achieve baseline withdrawal times of 10–15 s, and a preset cut-off time of 30 s was established to prevent tissue damage. […] Three successive applications of the heating stimulus were performed, with 1- to 2-minute intervals between them, and the mean of these measurements was calculated. Paw withdrawal latency was recorded for each animal before carrageenan administration and at 1, 2, and 3 h afterward.

[2] = system: OXPT-induced tactile allodynia; assay: oxaliplatin-induced neuropathic pain, von Frey test; type: in vivo; conditions: mice
Description: Neuropathy was induced by administering a single dose (10 mg/kg) of Oxaliplatin (OXPT) dissolved in a 5% glucose solution (Polfa Kutno, Poland). To assess the response to mechanical stimuli, the von Frey test was carried with application of the electronic von Frey unit (Bioseb, France). The apparatus contained a single flexible filament, which was used to apply increasing force ranging from 0 to 10 g to the plantar surface of the mouse’s hind paw. The crossing of pain threshold led to the paw withdrawal. The mechanical pressure that evoked the nocifensive response was subsequently recorded. The measurement was performed before the OXPT administration and 7 days afterwards. The compounds were administrated to the animals with developed mechanical allodynia observed as a statistically significant decrease in pain threshold. On the day of the experiment, each mouse was placed in an observation chamber with a wire mesh bottom and was allowed to habituate for 1 h. After the habituation period, the mouse pain threshold was tested 3 times alternately with at least a 30 s gap between each measurement. The mean of these three consecutive measurements was taken as a baseline value. The mice with tactile allodynia were i.p. pretreated with the tested compound or their combinations, and 30 min later the animals were tested again according to the same procedure.

[3] = system: (R)-(-)-α-methylhistamine-induced dipsogenia; parameters: method as in PMID 28797771; conditions: rats; cited from earlier work
[4] = molecular target: human histamine H4 receptor; conditions: read-out: Ki, human histamine H4 receptor; cited from earlier work
formalin-induced pain = assay: formalin test; type: in vivo, mice
Description: The mice received an intraperitoneal (i.p.) injection of either the test compound or a control solution. After 30 min, a 20 μL injection of a 2.5% formalin solution was administered into the right hind paw. Right after the formalin injection, the animals were individually placed into glass containers and observed for the following 30 min. During specific time intervals (0–5 min, referred to as Phase I, and 15–30 min, referred to as Phase II, post-formalin injection), the time spent by the animals licking or biting the injected paw was recorded..

human sigma 1 receptor = molecular target: T1, human sigma 1 receptor (Homo sapiens, UniProt Q99720); assay: radioligand binding, human sigma 1 receptor ([3H](+)pentazocine, Jurkat cells)
T1 construct: [^3H](+)pentazocine (agonist) in Jurkat cells; host or cells: Jurkat cells
T1 sequence (Q99720 whole entry): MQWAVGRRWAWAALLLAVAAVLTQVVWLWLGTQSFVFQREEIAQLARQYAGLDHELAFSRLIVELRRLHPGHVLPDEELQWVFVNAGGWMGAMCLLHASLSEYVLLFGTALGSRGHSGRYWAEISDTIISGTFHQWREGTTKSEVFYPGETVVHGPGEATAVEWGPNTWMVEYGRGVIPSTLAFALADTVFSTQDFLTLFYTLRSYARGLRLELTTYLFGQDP

[5] = molecular target: T2, human kappa opioid receptor (Homo sapiens, UniProt P41145); assay: radioligand binding, human opioid kappa receptor ([3H]U69593, RBL cells)
T2 construct: host or cells: RBL cells
T2 sequence (P41145 whole entry): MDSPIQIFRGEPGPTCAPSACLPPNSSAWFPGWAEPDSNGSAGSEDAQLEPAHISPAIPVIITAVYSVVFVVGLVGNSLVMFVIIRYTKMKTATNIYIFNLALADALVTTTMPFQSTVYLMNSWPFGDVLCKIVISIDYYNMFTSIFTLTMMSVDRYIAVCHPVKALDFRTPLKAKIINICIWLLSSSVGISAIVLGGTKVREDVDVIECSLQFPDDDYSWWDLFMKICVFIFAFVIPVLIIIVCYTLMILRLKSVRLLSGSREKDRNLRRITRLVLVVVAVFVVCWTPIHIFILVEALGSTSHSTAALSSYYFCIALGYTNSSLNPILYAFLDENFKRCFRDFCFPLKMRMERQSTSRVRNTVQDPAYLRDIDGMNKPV

hMAO B = system: hMAO B; parameters: method as in PMID 34208297; conditions: cited from earlier work
eqBuChE = system: eqBuChE; parameters: method as in PMID 34208297; conditions: cited from earlier work
[6] = molecular target: human histamine H3 receptor; parameters: method as in PMID 28797771; conditions: [3H]Nα-methylhistamine in HEK293 cells; cited from earlier work
capsaicin-induced pain = assay: capsaicin test; type: in vivo; conditions: mice, all doses (10, 15 and 30 mg/kg i.p.)
Description: The mice received an intraperitoneal (i.p.) injection of either the test compound or a control solution. After 30 min, an intraplantar injection of 1.6 µg capsaicin in a 20 μL solution of 0.9% NaCl was administered to the right hind paw. Right after the capsaicin injection, the animals were individually placed into glass containers and observed for the subsequent 5 min. During this observation period, the time that each animal spent licking or biting the injected paw was recorded.

[7] = system: carrageenan-induced mechanical hyperalgesia; assay: carrageenan-induced mechanical hyperalgesia (Randall-Selitto); type: in vivo; conditions: rats, 3 h after carrageenan, vehicle 87.8%
Description: as §1
Furthermore, to assess the heightened sensitivity to mechanical stimuli, we employed the pain pressure threshold test. This involved applying increasing pressure to the dorsal surface of the right hind paw using an automated gauge (Analgesy Meter 37215, Ugo Basile, Gemonio, Italy), following the method outlined by Randall and Selitto. The force’s intensity, measured in grams, was recorded when the paw was withdrawn (withdrawal threshold). For each animal, withdrawal thresholds were recorded both prior to the administration of carrageenan and three hours afterward. The results were expressed as a percentage of the initial reaction, with the nociceptive response before carrageenan administration considered as the baseline (100% response).

O=C(O)C(=O)O.c1ccc(-c2ccc(OCCCCCN3CCCCCC3)cc2)cc1 [Compound E153, 1-(5-(4-Phenylphenoxy)pentyl)azepane hydrogen oxalate]
paw withdrawal latency (thermal), % of baseline ([1]; 15 mg/kg, 1 h after carrageenan): 100.8% | paw withdrawal latency (thermal), % of baseline ([1]; 15 mg/kg, 2 h after carrageenan): 122.6% | paw withdrawal latency (thermal), % of baseline ([1]; 15 mg/kg, 3 h after carrageenan): 122.6% | paw withdrawal latency (thermal), % of baseline ([1]; 30 mg/kg, 1 h after carrageenan): 130.3% | paw withdrawal latency (thermal), % of baseline ([1]; 30 mg/kg, 2 h after carrageenan): 114.8% | paw withdrawal latency (thermal), % of baseline ([1]; 30 mg/kg, 3 h after carrageenan): 126.6% | von Frey paw withdrawal force, % of baseline ([2]; 10 mg/kg i.p., early phase (3 h after OXPT), OXPT alone 60.13%): 71.5% | reversal of the effect of OXPT (von Frey) ([2]; 10 mg/kg i.p., late phase (7 days after OXPT)): not in late phase | von Frey paw withdrawal force, % of baseline ([2]; 15 mg/kg i.p., early phase (3 h), OXPT alone 60.5%): 80.0% | von Frey paw withdrawal force, % of baseline ([2]; 15 mg/kg i.p., late phase (7 days), OXPT alone 57.4%): 79.4% | von Frey paw withdrawal force, % of baseline ([2]; 30 mg/kg i.p., early phase (3 h), OXPT alone 57.9%): 97.9% | von Frey paw withdrawal force, % of baseline ([2]; 30 mg/kg i.p., late phase (7 days), OXPT alone 60.6%): 87.9% | ED50, (R)-(-)-α-methylhistamine-induced dipsogenia [3]: 1.75 mg/kg | Ki [4]: 22 µM | duration of the nociceptive response, acute phase of the formalin test (formalin-induced pain; mice, 10, 15 and 30 mg/kg i.p., 0–5 min after formalin): did not significantly affect | paw licking or biting behavior, late phase of the formalin test (formalin-induced pain; mice, all doses tested (10, 15 and 30 mg/kg i.p.), 15–30 min after formalin): significantly attenuated | IC50 (human sigma 1 receptor): 0.0024 µM | Ki (human sigma 1 receptor): 0.0012 µM | inhibition at 1 µM (human sigma 1 receptor; at 1 μM): 95% | inhibition at 1 µM [5]: 52% | IC50 (hMAO B): 0.24 µM | IC50 (eqBuChE): 0.59 µM | Ki [6]: 0.034 µM and 0.0339 µM | paw licking or biting behavior, capsaicin test (capsaicin-induced pain): significantly decreased | mechanical pain threshold, % of baseline ([7]; 15 mg/kg): 112.5% | mechanical pain threshold, % of baseline ([7]; 30 mg/kg): 111.8%
